Experiments:
Jurkat cells = assay: Phenotypical evaluation of ATR inhibition: S-phase arrest of Jurkat cells under aphidicolin replication stress, flow cytometry; type: cell-based, human; details: 0.2 μM aphidicolin, 24 hours
Description: It is known that inhibition of ATR in cells under replicative stress stalls DNA replication, which prevents cells from progressing through S-phase, leading to an accumulation of cells in this cell cycle phase (Kevin D. Smith, et al., Tim-Tipin dysfunction creates an indispensable reliance on the ATR-Chk1 pathway for continued DNA synthesis, J. Cell Biol. 2009, 187, 15-23). In the present experiment Jurkat cells were treated with 0.2 μM aphidicolin to induce replication stress in the presence of test compounds, at concentrations ranging from 10 μM to 0.1 μM, for 24 hours. Cells were fixed and cell-cycle profiles examined by flow cytometry as in Smith, J. Cell Bio. 2009. Test compounds were considered active if stalling of the cells in S-phase was observed.

ATR = molecular target: T1, ATR (Homo sapiens, UniProt Q13535); assay: ATR cellular kinase activity: Chk1 and H2AX phosphorylation in HCT119 WT BCL/XL-GFP cells with aphidicolin, western blot; type: cell-based; details: 5 μM aphidicolin, 4 hours
T1 construct: endogenous in cells; host or cells: HCT119 WT BCL/XL-GFP cells
From the text: (§1) Chk1 phosphorylation, ATR's primary downstream target, is used as a read-out for ATR activity (Liu Q. et al., Chk1 is an essential kinase that is regulated by Atr and required for the G(2)/M DNA damage checkpoint, Genes Dev. 2000, Jun. 15, 14(12), 1448-1459; and (Jia Li and David F. Stern, Regulation of CHK2 by DNA-dependent Protein Kinase, J Biol. Chem. 2005, 280, 12041-12050). Chk2 phosphorylation (stimulated by 5 Gy irradiation), is a marker of ATM and DNA-PKcs activity, which together with ATR are closely related DNA-damage responsive PIKK family kinases (Shuhei Matsuoka et al., Ataxia telangiectasia-mutated phosphorylates Chk2 in vivo and in vitro, Proceedings of the National Academy of Sciences of the USA, 2000, 97(19), 10389-10394; Li J and Stern D F, Regulation of CHK2 by DNA-dependent protein kinase. The Journal of biological chemistry, 2005, 280, 12041-12050).
HCT119 WT BCL/XL-GFP cells were incubated with decreasing concentrations of test compounds (10-0.003 μM) and 5 μM aphidicolin for 4 hours prior to lysis. Cell lysis and western blotting were performed as in Gilad, Cancer Res, 2010, using the following antibodies as per manufacturers' instructions: pCHK1 (Ser345) (Cell signaling 133D3), pH2AX (S139) (Millipore 05636), GAPDH (loading control, Chemicon MAB374), and MCM3 (loading control, Santa Cruz sc-9850). Test compounds were considered active if significant inhibition of Chk1 phosphorylation was observed.

Chk2 phosphorylation = assay: ATR kinase selectivity: Chk2 phosphorylation in HCT119 WT BCL/XL-GFP cells after 5 Gy irradiation, western blot; type: cell-based, human; details: 5-0.01 μM compound, stimulated by 5 Gy irradiation, pChk2 (T68) (FIG. 4C)
From the text: as §1
HCT119 WT BCL/XL-GFP cells were incubated with decreasing concentrations of test compounds (5-0.01 μM) alone for 30 minutes followed by 5 Gy irradiation and cell lysis 20 minutes post irradiation. Cell lysis and western blotting were performed as in Gilad, Cancer Res, 2010, using the following antibodies as per manufacturers' instructions: pChk2 (T68) (Cell Signaling 2661S), GAPDH (loading control, Chemicon MAB374), and MCM3 (loading control, Santa Cruz sc-9850).

[1] = 1.25 μM compound, Jurkat cells (FIGS. 3A, 3B)

T1 sequence (Q13535 whole entry): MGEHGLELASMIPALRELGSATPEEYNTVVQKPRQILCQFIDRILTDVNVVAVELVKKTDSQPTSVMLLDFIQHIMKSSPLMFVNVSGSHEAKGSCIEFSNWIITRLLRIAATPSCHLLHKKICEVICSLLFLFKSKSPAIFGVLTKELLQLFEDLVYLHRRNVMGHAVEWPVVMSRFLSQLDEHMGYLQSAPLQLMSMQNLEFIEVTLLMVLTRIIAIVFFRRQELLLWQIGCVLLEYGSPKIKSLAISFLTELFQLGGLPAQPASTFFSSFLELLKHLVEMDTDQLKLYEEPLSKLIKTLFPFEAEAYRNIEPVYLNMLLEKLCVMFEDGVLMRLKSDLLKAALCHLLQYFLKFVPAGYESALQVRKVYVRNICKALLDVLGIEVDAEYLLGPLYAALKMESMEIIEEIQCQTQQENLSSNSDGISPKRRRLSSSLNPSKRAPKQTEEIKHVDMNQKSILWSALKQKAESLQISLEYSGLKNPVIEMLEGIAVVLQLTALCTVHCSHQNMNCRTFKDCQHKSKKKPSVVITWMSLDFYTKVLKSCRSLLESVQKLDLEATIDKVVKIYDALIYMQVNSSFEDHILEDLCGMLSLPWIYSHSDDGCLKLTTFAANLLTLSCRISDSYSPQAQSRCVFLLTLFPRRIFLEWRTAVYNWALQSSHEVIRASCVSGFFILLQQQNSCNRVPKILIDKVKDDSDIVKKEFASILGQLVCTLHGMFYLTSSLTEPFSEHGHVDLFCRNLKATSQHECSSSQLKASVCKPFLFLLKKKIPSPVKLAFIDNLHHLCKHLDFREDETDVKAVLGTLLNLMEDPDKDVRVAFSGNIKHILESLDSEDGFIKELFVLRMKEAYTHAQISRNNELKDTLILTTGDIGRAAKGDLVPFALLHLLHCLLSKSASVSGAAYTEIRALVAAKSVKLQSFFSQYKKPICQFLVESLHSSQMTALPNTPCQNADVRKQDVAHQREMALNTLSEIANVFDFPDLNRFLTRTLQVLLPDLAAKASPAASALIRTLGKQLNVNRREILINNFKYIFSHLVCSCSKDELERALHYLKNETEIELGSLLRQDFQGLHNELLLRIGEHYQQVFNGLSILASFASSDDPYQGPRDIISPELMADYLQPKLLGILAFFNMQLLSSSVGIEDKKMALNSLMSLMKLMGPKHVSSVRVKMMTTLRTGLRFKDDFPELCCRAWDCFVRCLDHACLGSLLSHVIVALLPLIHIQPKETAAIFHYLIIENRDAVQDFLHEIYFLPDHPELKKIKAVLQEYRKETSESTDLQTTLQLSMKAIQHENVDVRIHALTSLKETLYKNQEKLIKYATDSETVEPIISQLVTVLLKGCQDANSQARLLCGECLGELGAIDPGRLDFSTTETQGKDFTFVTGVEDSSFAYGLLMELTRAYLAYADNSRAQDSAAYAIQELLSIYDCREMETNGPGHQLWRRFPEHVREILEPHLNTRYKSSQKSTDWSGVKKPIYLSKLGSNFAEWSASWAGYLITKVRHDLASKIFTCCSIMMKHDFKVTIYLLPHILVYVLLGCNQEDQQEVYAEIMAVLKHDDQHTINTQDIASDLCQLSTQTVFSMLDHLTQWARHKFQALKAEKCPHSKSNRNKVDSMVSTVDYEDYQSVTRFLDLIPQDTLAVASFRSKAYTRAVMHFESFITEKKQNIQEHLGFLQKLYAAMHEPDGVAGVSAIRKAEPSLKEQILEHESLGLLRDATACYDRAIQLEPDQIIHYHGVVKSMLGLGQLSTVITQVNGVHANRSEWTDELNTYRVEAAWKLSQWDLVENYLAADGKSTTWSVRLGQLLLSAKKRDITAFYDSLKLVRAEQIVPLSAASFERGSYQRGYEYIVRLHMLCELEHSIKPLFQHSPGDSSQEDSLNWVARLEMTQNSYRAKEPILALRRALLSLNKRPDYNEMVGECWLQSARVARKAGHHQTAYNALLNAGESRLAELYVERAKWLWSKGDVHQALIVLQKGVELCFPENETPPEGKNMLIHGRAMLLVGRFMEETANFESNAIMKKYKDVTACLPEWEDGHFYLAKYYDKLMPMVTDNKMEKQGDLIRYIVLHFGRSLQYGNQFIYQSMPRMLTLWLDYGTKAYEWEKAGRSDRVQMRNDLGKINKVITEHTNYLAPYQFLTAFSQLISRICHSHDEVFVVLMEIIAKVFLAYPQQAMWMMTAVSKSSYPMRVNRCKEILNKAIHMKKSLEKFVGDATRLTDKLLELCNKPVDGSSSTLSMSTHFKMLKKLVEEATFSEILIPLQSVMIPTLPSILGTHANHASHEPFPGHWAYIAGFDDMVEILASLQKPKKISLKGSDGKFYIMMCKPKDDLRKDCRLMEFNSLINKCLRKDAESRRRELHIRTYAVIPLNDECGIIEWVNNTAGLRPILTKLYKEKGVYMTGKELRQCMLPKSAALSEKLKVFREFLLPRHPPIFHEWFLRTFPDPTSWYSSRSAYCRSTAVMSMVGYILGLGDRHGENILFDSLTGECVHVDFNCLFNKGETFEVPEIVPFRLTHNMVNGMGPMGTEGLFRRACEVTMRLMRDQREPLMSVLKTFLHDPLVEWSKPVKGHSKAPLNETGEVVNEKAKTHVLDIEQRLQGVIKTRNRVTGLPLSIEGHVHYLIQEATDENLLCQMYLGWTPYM
T1 sequence (Q8WXE1 whole entry partner): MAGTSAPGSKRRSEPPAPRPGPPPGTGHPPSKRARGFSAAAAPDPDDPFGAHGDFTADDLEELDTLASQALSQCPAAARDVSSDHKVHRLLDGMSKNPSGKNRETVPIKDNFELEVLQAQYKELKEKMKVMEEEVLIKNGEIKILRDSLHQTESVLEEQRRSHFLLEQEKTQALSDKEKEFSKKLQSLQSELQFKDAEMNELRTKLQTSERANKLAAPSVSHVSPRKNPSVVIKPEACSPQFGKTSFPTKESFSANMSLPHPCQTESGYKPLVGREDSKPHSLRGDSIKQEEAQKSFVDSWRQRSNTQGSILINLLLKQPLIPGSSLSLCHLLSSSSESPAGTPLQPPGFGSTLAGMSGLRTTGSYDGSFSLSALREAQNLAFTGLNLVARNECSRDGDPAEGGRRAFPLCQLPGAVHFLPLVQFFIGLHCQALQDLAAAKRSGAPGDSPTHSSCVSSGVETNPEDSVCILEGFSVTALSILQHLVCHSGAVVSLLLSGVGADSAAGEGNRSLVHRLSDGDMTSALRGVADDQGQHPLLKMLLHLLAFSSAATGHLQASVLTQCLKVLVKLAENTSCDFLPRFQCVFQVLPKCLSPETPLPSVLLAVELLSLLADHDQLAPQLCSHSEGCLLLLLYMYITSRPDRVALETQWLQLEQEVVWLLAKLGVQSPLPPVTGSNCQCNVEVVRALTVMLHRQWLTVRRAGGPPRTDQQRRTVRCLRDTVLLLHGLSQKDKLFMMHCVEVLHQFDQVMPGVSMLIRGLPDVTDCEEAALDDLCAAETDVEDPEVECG

Row | Compound | inhibition of cell cycle progression by accumulation of cells in S-phase (Jurkat cells; [1]) | inhibition of cell cycle progression by accumulation of cells in S-phase (Jurkat cells; 2.5 μM compound, Jurkat cells (FIG. 2)) | inhibition of cell cycle progression by accumulation of cells in S-phase (Jurkat cells; 10 μM compound, Jurkat cells (FIG. 1)) | concentration at which Chk1 phosphorylation is completely inhibited (ATR; pCHK1 (Ser345) (FIG. 4B)) [μLM] | lowest dose able to limit phosphorylation of Chk1 (ATR; pCHK1 (Ser345) (FIG. 4B)) [nM] | H2AX phosphorylation (DNA double strand breaks) (ATR; pH2AX (S139) (FIG. 4B)) | levels of Chk2 phosphorylation (Chk2 phosphorylation)
1 | CNS(=O)(=O)c1ccc(-c2cnc(N)c(C(=O)Nc3ccccc3OCCOCCOCCO)n2)cc1 [IM11, 3-amino-N-(2-(2-(2-(2-hydroxyethoxy)ethoxy)ethoxy)phenyl)-6-(4-(N-methylsulfamoyl)phenyl)pyrazine-2-carboxamide] | inactive | – | – | – | – | – | –
2 | CN1CCOCCOCCOc2ccccc2NC(=O)c2nc(cnc2N)-c2ccc(cc2)S1(=O)=O [P(1)] | significant inhibition of cell cycle progression | significant inhibition of cell cycle progression | significant inhibition of cell cycle progression | – | – | – | –
3 | CNCc1cccc2c1OCCOCCOCCN(C)S(=O)(=O)c1ccc(cc1)-c1cnc(N)c(n1)C(=O)N2 [P(4)] | – | – | – | ≥ 1 | 30 | increased H2AX phosphorylation | did not affect

— patent US9981989B2, “Ataxia telengiectasia and Rad3-related (ATR) protein kinase inhibitors” (Atrin Pharmaceuticals LLC, priority 2014, dated 2018)
